Starred links: 1 amine or outer side, 2 acyl side, 3 side chain; linkers in the order of their positions; H or OH if unused. Non-standard residues stand in square brackets, D forms with d. Residues, ends and D or L forms follow the SMILES beside them. Groups on a side chain read outwards from the residue. *: point of attachment. Phe(4-CH2NH2) = NCc1ccc(C[C@H](N)C(=O)O)cc1; C19 diacid = O=C(O)CCCCCCCCCCCCCCCCCC(=O)*; C16 diacid = O=C(O)CCCCCCCCCCCCCCC(=O)*; γGlu = O=C(O)[C@H](CCC(=O)[*:2])N[*:1]; Met(O2) = CS(=O)(=O)CC[C@H](N)C(=O)O; αMeD = C[C@](N)(CC(=O)O)C(=O)O; AEEA = NCCOCCOCC(=O)O; Aib = CC(C)(N)C(=O)O
Columns and labels:
human GCGR = molecular target: T1, human GCGR (Homo sapiens, UniProt P47871); test: cAMP activity assay, cells expressing human GCGR; format: cell-based; conditions: for EC50: cAMP production, cells expressing human GCGR, assay buffer with or without 20% human serum (not stated which), read-out: GCGR EC50 human; for hGCGR/hGLP1R (hTone): ratio of human GCGR EC50 to human GLP1R EC50
T1 construct: expressed in transfected cells; kept under Blasticidin and Hygromycin selection
T1 sequence (P47871 26-477): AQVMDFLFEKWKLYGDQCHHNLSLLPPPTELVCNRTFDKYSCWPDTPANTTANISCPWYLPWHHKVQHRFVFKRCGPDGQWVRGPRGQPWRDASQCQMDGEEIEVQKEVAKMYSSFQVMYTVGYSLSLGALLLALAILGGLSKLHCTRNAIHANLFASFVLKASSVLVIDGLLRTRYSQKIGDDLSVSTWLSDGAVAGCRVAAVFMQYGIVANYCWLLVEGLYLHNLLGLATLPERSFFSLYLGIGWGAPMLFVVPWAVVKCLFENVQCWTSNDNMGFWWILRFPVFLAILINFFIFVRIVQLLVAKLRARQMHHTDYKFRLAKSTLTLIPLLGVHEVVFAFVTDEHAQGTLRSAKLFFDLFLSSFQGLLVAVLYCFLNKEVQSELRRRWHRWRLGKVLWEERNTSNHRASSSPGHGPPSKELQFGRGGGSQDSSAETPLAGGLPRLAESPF
In short: (§1)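 cAMP production in human GLP1R- or GCGR-expressing cells was read by luminescence after overnight dark incubation at room temperature. Peptides were given as 10-point DMSO dilution series, with native GLP-1 and glucagon as references. Four-parameter logistic fitting gave EC50.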

human GLP1R = molecular target: T2, human GLP1R (Homo sapiens, UniProt P43220); test: cAMP activity assay, cells expressing human GLP1R; format: cell-based; conditions: cAMP production, assay buffer with or without 20% human serum (not stated which)
T2 construct: expressed in transfected cells; kept under Blasticidin and Hygromycin selection
T2 sequence (P43220 24-463): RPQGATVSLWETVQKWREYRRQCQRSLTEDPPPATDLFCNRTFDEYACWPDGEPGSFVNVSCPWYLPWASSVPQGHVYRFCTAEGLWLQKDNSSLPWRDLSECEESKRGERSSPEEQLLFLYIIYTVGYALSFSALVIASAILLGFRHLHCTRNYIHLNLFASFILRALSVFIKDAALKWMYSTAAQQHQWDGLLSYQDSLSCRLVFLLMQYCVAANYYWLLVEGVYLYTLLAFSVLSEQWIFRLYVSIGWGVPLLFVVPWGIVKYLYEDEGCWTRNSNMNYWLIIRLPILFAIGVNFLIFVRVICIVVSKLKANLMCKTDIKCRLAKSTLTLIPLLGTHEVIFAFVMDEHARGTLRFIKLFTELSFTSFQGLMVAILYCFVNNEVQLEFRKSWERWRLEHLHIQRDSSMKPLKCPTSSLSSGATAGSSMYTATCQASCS
In short: as §1

SMILES | EC50 (human GCGR) [pM] | hGCGR/hGLP1R (hTone) (human GCGR) | EC50 (human GLP1R) [pM]
CC(C)C[C@H](NC(=O)[C@H](Cc1ccc(O)cc1)NC(=O)[C@H](CCCCN)NC(=O)[C@H](CO)NC(=O)[C@H](Cc1ccc(O)cc1)NC(=O)[C@H](CC(=O)O)NC(=O)[C@H](CO)NC(=O)[C@@H](NC(=O)[C@H](Cc1ccccc1)NC(=O)[C@@H](NC(=O)CNC(=O)[C@H](CCC(N)=O)NC(=O)[C@@H](CO)NC(=O)[C@@H](N)Cc1c[nH]cn1)[C@@H](C)O)[C@@H](C)O)C(=O)N[C@@H](CC(=O)O)C(=O)N[C@@H](C)C(=O)N[C@@H](CCCNC(=N)N)C(=O)N[C@@H](C)C(=O)N[C@@H](C)C(=O)N[C@@H](CCCCNC(=O)COCCOCCNC(=O)COCCOCCNC(=O)CC[C@H](NC(=O)CCCCCCCCCCCCCCC(=O)O)C(=O)O)C(=O)N[C@@H](CC(=O)O)C(=O)N[C@@H](Cc1ccccc1)C(=O)N[C@H](C(=O)N[C@@H](CCC(N)=O)C(=O)N[C@@H](Cc1c[nH]c2ccccc12)C(=O)N[C@@H](CC(C)C)C(=O)N[C@@H](CC(C)C)C(=O)N[C@@H](CC(=O)O)C(=O)N[C@H](C(N)=O)[C@@H](C)O)C(C)C [compound 2] (H-H[dS]QGTFTSDYSKYLDARAAK([AEEA-AEEA-γGlu-C16 diacid])DFVQWLLDT-NH2; N-terminus assumed) | 30 | 0.11 | 274
CC(C)C[C@H](NC(=O)[C@H](Cc1ccc(O)cc1)NC(=O)[C@H](Cc1ccc(CNC(=O)COCCOCCNC(=O)COCCOCCNC(=O)CC[C@H](NC(=O)CCCCCCCCCCCCCCC(=O)O)C(=O)O)cc1)NC(=O)[C@H](CO)NC(=O)[C@H](Cc1ccc(O)cc1)NC(=O)[C@H](CC(=O)O)NC(=O)[C@H](CO)NC(=O)[C@@H](NC(=O)[C@H](Cc1ccccc1)NC(=O)[C@@H](NC(=O)CNC(=O)[C@H](CCC(N)=O)NC(=O)[C@@H](CO)NC(=O)[C@@H](N)Cc1c[nH]cn1)[C@@H](C)O)[C@@H](C)O)C(=O)N[C@@H](CC(=O)O)C(=O)N[C@@H](CCC(=O)O)C(=O)N[C@@H](CCCNC(=N)N)C(=O)N[C@@H](C)C(=O)N[C@@H](C)C(=O)N[C@@H](CCC(N)=O)C(=O)N[C@@H](CC(=O)O)C(=O)N[C@@H](Cc1ccccc1)C(=O)N[C@H](C(=O)N[C@@H](CCC(N)=O)C(=O)N[C@@H](Cc1c[nH]c2ccccc12)C(=O)N[C@@H](CC(C)C)C(=O)N[C@@H](CCS(C)(=O)=O)C(=O)N[C@@H](CC(=O)O)C(=O)N[C@H](C(N)=O)[C@@H](C)O)C(C)C [compound 24] (H-H[dS]QGTFTSDYS[Phe(4-CH2NH2)]([AEEA-AEEA-γGlu-C16 diacid])YLDERAAQDFVQWL[Met(O2)]DT-NH2; N-terminus assumed) | 780 | 4.76 | 370
CC(C)C[C@H](NC(=O)[C@H](Cc1ccc(O)cc1)NC(=O)[C@H](CCCCN)NC(=O)[C@H](CO)NC(=O)[C@H](Cc1ccc(O)cc1)NC(=O)[C@H](CC(=O)O)NC(=O)[C@H](CO)NC(=O)[C@@H](NC(=O)[C@H](Cc1ccccc1)NC(=O)[C@@H](NC(=O)CNC(=O)[C@H](CCC(N)=O)NC(=O)[C@@H](CO)NC(=O)[C@@H](N)Cc1c[nH]cn1)[C@@H](C)O)[C@@H](C)O)C(=O)N[C@@H](CC(=O)O)C(=O)N[C@@H](C)C(=O)N[C@@H](CCCNC(=N)N)C(=O)N[C@@H](C)C(=O)N[C@@H](C)C(=O)N[C@@H](CCC(N)=O)C(=O)N[C@@H](Cc1ccc(CNC(=O)COCCOCCNC(=O)COCCOCCNC(=O)CC[C@H](NC(=O)CCCCCCCCCCCCCCC(=O)O)C(=O)O)cc1)C(=O)N[C@@H](Cc1ccccc1)C(=O)N[C@H](C(=O)N[C@@H](CCC(N)=O)C(=O)N[C@@H](Cc1c[nH]c2ccccc12)C(=O)N[C@@H](CC(C)C)C(=O)N[C@@H](CC(C)C)C(=O)N[C@@H](CC(=O)O)C(=O)N[C@H](C(N)=O)[C@@H](C)O)C(C)C [compound 23] (H-H[dS]QGTFTSDYSKYLDARAAQ[Phe(4-CH2NH2)]([AEEA-AEEA-γGlu-C16 diacid])FVQWLLDT-NH2) | 40 | 0.14 | 270
CC(C)C[C@H](NC(=O)[C@H](Cc1ccc(O)cc1)NC(=O)[C@H](CCCCN)NC(=O)[C@H](CO)NC(=O)[C@H](Cc1ccc(O)cc1)NC(=O)[C@H](CC(=O)O)NC(=O)[C@H](CO)NC(=O)[C@@H](NC(=O)[C@H](Cc1ccccc1)NC(=O)[C@@H](NC(=O)CNC(=O)[C@H](CCC(N)=O)NC(=O)C(C)(C)NC(=O)[C@@H](N)Cc1c[nH]cn1)[C@@H](C)O)[C@@H](C)O)C(=O)N[C@@H](CC(=O)O)C(=O)N[C@@H](C)C(=O)N[C@@H](CCCNC(=N)N)C(=O)N[C@@H](C)C(=O)N[C@@H](C)C(=O)N[C@@H](CCCCNC(=O)COCCOCCNC(=O)COCCOCCNC(=O)CC[C@H](NC(=O)CCCCCCCCCCCCCCCCCC(=O)O)C(=O)O)C(=O)N[C@@H](CC(=O)O)C(=O)N[C@@H](Cc1ccccc1)C(=O)N[C@H](C(=O)N[C@@H](CCC(N)=O)C(=O)N[C@@H](Cc1c[nH]c2ccccc12)C(=O)N[C@@H](CC(C)C)C(=O)N[C@@H](CCS(C)(=O)=O)C(=O)N[C@@H](CC(=O)O)C(=O)N[C@H](C(N)=O)[C@@H](C)O)C(C)C [compound 45] (H-H[Aib]QGTFTSDYSKYLDARAAK([AEEA-AEEA-γGlu-C19 diacid])DFVQWL[Met(O2)]DT-NH2) | 160 | 1.30 | 120
CC(C)C[C@H](NC(=O)[C@H](Cc1ccc(O)cc1)NC(=O)[C@H](CCCCN)NC(=O)[C@H](CO)NC(=O)[C@H](Cc1ccc(O)cc1)NC(=O)[C@H](CC(=O)O)NC(=O)[C@H](CO)NC(=O)[C@@H](NC(=O)[C@H](Cc1ccccc1)NC(=O)[C@@H](NC(=O)CNC(=O)[C@H](CCC(N)=O)NC(=O)C(C)(C)NC(=O)[C@@H](N)Cc1c[nH]cn1)[C@@H](C)O)[C@@H](C)O)C(=O)N[C@@H](CC(=O)O)C(=O)N[C@@H](C)C(=O)N[C@@H](CCCNC(=N)N)C(=O)N[C@@H](C)C(=O)N[C@@H](C)C(=O)N[C@@H](CCCCNC(=O)COCCOCCNC(=O)COCCOCCNC(=O)CC[C@H](NC(=O)CCCCCCCCCCCCCCC(=O)O)C(=O)O)C(=O)N[C@@H](CC(=O)O)C(=O)N[C@@H](Cc1ccccc1)C(=O)N[C@H](C(=O)N[C@@H](CCC(N)=O)C(=O)N[C@@H](Cc1c[nH]c2ccccc12)C(=O)N[C@@H](CC(C)C)C(=O)N[C@@H](CC(C)C)C(=O)N[C@@H](CC(=O)O)C(=O)N[C@H](C(N)=O)[C@@H](C)O)C(C)C [compound 17] (H-H[Aib]QGTFTSDYSKYLDARAAK([AEEA-AEEA-γGlu-C16 diacid])DFVQWLLDT-NH2) | 140 | 1.44 | 100
CC(C)C[C@H](NC(=O)[C@H](Cc1ccc(O)cc1)NC(=O)[C@H](CCCCN)NC(=O)[C@H](CO)NC(=O)[C@H](Cc1ccc(CNC(=O)COCCOCCNC(=O)COCCOCCNC(=O)CC[C@H](NC(=O)CCCCCCCCCCCCCCC(=O)O)C(=O)O)cc1)NC(=O)[C@H](CC(=O)O)NC(=O)[C@H](CO)NC(=O)[C@@H](NC(=O)[C@H](Cc1ccccc1)NC(=O)[C@@H](NC(=O)CNC(=O)[C@H](CCC(N)=O)NC(=O)C(C)(C)NC(=O)[C@@H](N)Cc1c[nH]cn1)[C@@H](C)O)[C@@H](C)O)C(=O)N[C@@H](CC(=O)O)C(=O)N[C@@H](C)C(=O)N[C@@H](CCCNC(=N)N)C(=O)N[C@@H](C)C(=O)N[C@@H](C)C(=O)N[C@@H](CCC(N)=O)C(=O)N[C@@H](CC(=O)O)C(=O)N[C@@H](Cc1ccccc1)C(=O)N[C@H](C(=O)N[C@@H](CCC(N)=O)C(=O)N[C@@H](Cc1c[nH]c2ccccc12)C(=O)N[C@@H](CC(C)C)C(=O)N[C@@H](CCS(C)(=O)=O)C(=O)N[C@@H](CC(=O)O)C(=O)N[C@H](C(N)=O)[C@@H](C)O)C(C)C [compound 12] (H-H[Aib]QGTFTSD[Phe(4-CH2NH2)]([AEEA-AEEA-γGlu-C16 diacid])SKYLDARAAQDFVQWL[Met(O2)]DT-NH2; N-terminus assumed) | 140 | 1.89 | 70
CC(C)C[C@H](NC(=O)[C@H](Cc1ccc(O)cc1)NC(=O)[C@H](CCCCN)NC(=O)[C@H](CO)NC(=O)[C@H](Cc1ccc(O)cc1)NC(=O)[C@H](CC(=O)O)NC(=O)[C@H](CO)NC(=O)[C@@H](NC(=O)[C@H](Cc1ccccc1)NC(=O)[C@@H](NC(=O)CNC(=O)[C@H](CCC(N)=O)NC(=O)C(C)(C)NC(=O)[C@@H](N)Cc1c[nH]cn1)[C@@H](C)O)[C@@H](C)O)C(=O)N[C@@H](CC(=O)O)C(=O)N[C@@H](C)C(=O)N[C@@H](CCCNC(=N)N)C(=O)N[C@@H](C)C(=O)N[C@@H](C)C(=O)N[C@@H](CCCCNC(=O)COCCOCCNC(=O)COCCOCCNC(=O)CC[C@H](NC(=O)CCCCCCCCCCCCCCC(=O)O)C(=O)O)C(=O)N[C@@H](CC(=O)O)C(=O)N[C@@H](Cc1ccccc1)C(=O)N[C@H](C(=O)N[C@@H](CCC(N)=O)C(=O)N[C@@H](Cc1c[nH]c2ccccc12)C(=O)N[C@@H](CC(C)C)C(=O)N[C@@H](CCS(C)(=O)=O)C(=O)N[C@@](C)(CC(=O)O)C(=O)N[C@H](C(N)=O)[C@@H](C)O)C(C)C [compound 41] (H-H[Aib]QGTFTSDYSKYLDARAAK([AEEA-AEEA-γGlu-C16 diacid])DFVQWL[Met(O2)][αMeD]T-NH2) | 50 | 3.13 | 20

From patent US11492385B2, “Long-acting co-agonists of the glucagon and GLP-1 receptors” (Merck Sharp & Dohme Corp., priority 2015, dated 2022)
